Article PMC9697349, “Mouse Pharmacokinetics and In Vitro Metabolism of SH-11037 and SH-11008, Synthetic Homoisoflavonoids for Retinal Neovascularization” (Pharmaceutics, 2022)

What was measured:
[1] = system: human microvascular retinal endothelial cell proliferation; set-up: method as in PMID 26035340; conditions: less potent than SH-11037; cited from earlier work
[2] = Mouse pharmacokinetics, single p.o. dose; assay type: in vivo; conditions: mice
Method: Pharmacokinetic studies were performed with male ICR mice (8 weeks old, 30~35 g) purchased from Koatech Co. (Kyunggi, Korea) as reported previously. Test compounds were dissolved at 1 mg/mL in DMA/Tween 80/20% aqueous HPβCD (10/10/80 vol%) to prepare the dosing solutions. SH-11037 was administered by oral (p.o.) gavage at a dose of 10 mg/kg and a dose volume of 10 mL/kg (equimolar to 6 mg/kg of SH-11008) or intravenously (i.v.) via tail vein injection at a dose of 5 mg/kg and a dose volume of 5 mL/kg (equimolar to 3 mg/kg of SH-11008), respectively. […] Plasma samples were analyzed as described below in Section 2.6.1.
Calibration standards and quality control (QC) samples were prepared by spiking 15 μL of blank plasma with 5 μL of analyte working solution prepared in 50 vol% aqueous CH3CN. […] The lower limit of quantitation of SH-11037 and SH-11008 were 0.24 and 0.48 ng/mL, respectively, with a signal-to-noise ratio based on root mean square noise > 10. […] The precision and accuracy of the analytical method were evaluated with the QC samples prepared in triplicate at 5, 250, and 400 ng/mL for both of SH-11037 and SH-11008: the coefficient of variation (%CV) and the relative error (%RE) were in the ranges of −21.23~5.72% and 1.47~12.30% for SH-11037 and −22.85~4.96% and 1.2~13.8% for SH-11008, respectively. […]

[3] = Stability of SH-11037 in human plasma; assay type: in vitro ADME; conditions: pH 7.4, SH-11037 1 µM, 37 °C, read-out: half-life (t1/2) of hydrolysis to SH-11008
Method: (§1) SH-11037 (1 μM) was incubated in triplicate in 0.1 M phosphate buffer (pH 7.4) or in mouse, dog, and human plasma to investigate its stability. SH-11037 (40 μM) in 50 vol% aqueous CH3CN was mixed with 0.1 M phosphate buffer (pH 7.4) or plasma diluted 3-fold with 0.1 M phosphate buffer (pH 7.4) to a final volume of 160 μL and a final concentration of 1 μM. The resulting solutions were then incubated at 37 °C in a shaking water bath. The incubations were terminated at selected times by adding 160 µL of ice-cold CH3CN containing glipizide (500 ng/mL) as the internal standard (IS). The resulting mixture was vortexed, sonicated, and centrifuged at 3000× g for 20 min. Aliquots of the supernatant were subjected to LC-MS/MS analysis described below in Section 2.6.2.
(§2) The LC-MS/MS system consisted of Agilent 1290 Infinity HPLC system and Agilent 6530 Accurate-Mass Quadrupole Time-of-Flight (Q-TOF) mass spectrometer equipped with dual AJS ESI ion source (Agilent Technologies Korea, Seoul, Korea). Chromatographic separation was performed on an Agilent Eclipse Plus C18 column (2.1 × 100 mm, 3.5 μm) with a Phenomenex Security Guard C18 guard column (4 × 20 mm) maintained at 40 °C. The mobile phase consisted of 0.1% formic acid in deionized water (A) and 0.1% formic acid in CH3CN (B): 0~2 min 5% B, 2~7 min to 95% B, and 7~10 min 95% B. Total run time including a 5 min equilibration time was 15 min. […]

[4] = Stability of SH-11037 in dog plasma; assay type: in vitro ADME; conditions: beagle, pH 7.4, SH-11037 1 µM, 37 °C, read-out: half-life (t1/2) of hydrolysis to SH-11008
Method: as §1, §2

SMILES | inhibitory activity on cell proliferation [1] | plasma levels of SH-11008 ([2]; after single p.o. dose of SH-11008 6 mg/kg, BQL) [ng/mL] | half-life at 1 µM [3] [h] | half-life at 1 µM [4] [h] | plasma level of SH-11037 ([2]; throughout the time course after single p.o. dose of SH-11037 10 mg/kg)
COc1ccc(CC2COc3cc(OC)c(OC)c(OC)c3C2=O)cc1O (centres unmarked) [SH-11008] | good inhibitory activity | < 0.48 | – | – | –
COc1ccc(CC2COc3cc(OC)c(OC)c(OC)c3C2=O)cc1OC(=O)[C@H](Cc1ccccc1)NC(=O)OC(C)(C)C (some centres unmarked) [SH-11037] | – | – | 1.22 | 1.15 | BQL
